# Laboratory results from patent publication US20240207292A1, “BORONIC ACID COMPOUNDS, COMPOSITIONS AND METHODS” (Trustees of Tufts College, priority 2021, published 2024).
# Where two headings read alike, the source gives them in different places.
# Key:
# [1] = molecular target: recombinant human FAP (Homo sapiens (Human), UniProt Q12884); assay: In vitro enzyme IC50 assay, FAP (Example 16); format: biochemical; conditions: 10 min preincubation at 25° C.; Z-Gly-Pro-AMC
# Method: Biological Materials: For the in vitro IC50 determination assays, recombinant human DPPIV, DPP9, FAP, and PREP were purchased from R&D Systems, and DPP8 was from Biomol International. Buffer systems used were A (25 mM Tris, pH 8.0), B (50 mM Tris, pH 7.5), C (50 mM Tris, 140 mM NaCl, pH 7.5), D (25 mM Tris, 250 mM NaCl, pH 7.5), and E (20 mM Tris, 20 mM KCl, pH 7.4). […] Substrate Specificity Assay. Peptide libraries (0.21 mM) were incubated for 24 h with 1 nM FAP in buffer E at 37° C. The reaction was quenched by the addition of 1.2 N HCl. The samples were analyzed by reverse-phase HPLC-MS on a Thermo Finnigan LCQ Duo, quantifying the peaks in the resulting base peak chromatograms. Relative cleavage values were determined by comparing the postquench abundance of intact peptides to those in the initial library.
# In Vitro Enzyme IC50 Assays. Enzymatic activity of DPPIV, DPP8, DPP9, FAP, and PREP was measured at 25° C. on a Molecular Devices M2e multidetection microtiter plate reader, monitoring the fluorescence at an excitation wavelength of 380 nm and an emission wavelength of 460 nm. The substrate was either H-Gly-Pro-AMC for the DPPIV, DPP8, and DPP9 assays or Z-Gly-Pro-AMC for the FAP and PREP assays. […] The final enzyme concentrations were 0.1, 0.8, 0.4, 1.2, and 0.6 nM for DPPIV, DPP8, DPP9, FAP, and PREP, respectively. […] Those prepared in pH 2.0 solution were preincubated at 25° C. for 4 h prior to dilution. Immediately prior to the commencement of the experiment, the 100 mM stocks were further diluted to 10^-3 M in the appropriate assay buffer, from which 1:10 serial dilutions were prepared. All inhibitors were tested in triplicate.
# [2] = molecular target: recombinant human fibroblast activation protein (FAP) (Homo sapiens (Human), UniProt Q12884); assay: In vitro assay fibroblast activation protein IC50 (Example 21); format: biochemical
# Method: (§1) The purpose of this assay is to determine the IC50 of various inhibitors against recombinant human dipeptidyl peptidase IV (DPPIV), fibroblast activation protein (FAP) or prolyl oligopeptidase (PREP).
# (§2) The assays are conducted in the following steps: • 1 Dissolve the compound in DMSO to a final concentration of 100 mM. From this, prepare a 1 mM stock at pH 7.5 in 50 mM Tris, 140 mM NaCl Buffer (FAP)/pH 7.5 in 25 mM Tris, 250 mM NaCl Buffer/[…]. • 2. Serial dilute (1:10) the 1 mM compound stocks prepared previously into the appropriate assay buffer (FAP: 50 mM Tris, 140 mM NaCl, pH 7.5/PREP: 25 mM Tris, 0.25 M NaCl, pH 7.5/DPPIV: 25 mM Tris, pH 8.0) to one row of a 96-well plate. • 3. […] Dilute the enzymes into their appropriate assay buffers. The final enzyme concentrations should be 0.1, 1.2, and 0.6 nM for DPPIV, FAP and PREP respectively. Add 180 μL to each well needed in columns 2-10. Column 1(A,B,C) should be prepared with 200 μl of appropriate assay buffer as control. Column 1(D,E,F,G,H) should be prepared with 20 μl of appropriate assay buffer and 180 ul enzyme as no inhibitor control. • 5. Add 20 μL of the compound of interest from the dilution plate prepared in step 2 to columns 2-10 of the assay plate where appropriate. Each sample should be tested in triplicate. Allow this to incubate for 10 minutes at room temperature, shaking the plate for the first two minutes. • 6. Add 10 μL of 20× substrate prepared in step 3 to each well and allow this to incubate for 15 minutes at room temperature, shaking the plate for the first two minutes. • 7. Read the fluorescence at λex: 380, λem: 460. (DPcore=[dAla|dSer|Gly]-[boroPro|Pro-nitrile], XXaa=alpha-amino acid)
# [3] = Radiochemical purity over time at room temperature (radio-HPLC); format: physicochemical; conditions: for 4 hours at room temperature
# Method: The labeling efficiency was analyzed by instant thin layer chromatography (iTLC) and was typically >98%. For iTLC analysis, 1 μL of diluted labeling solution was applied to a strip of iTLC-SA chromatography paper (Agilent P/N A120B12, 114×2.5 mm) and developed in 0.1M citrate buffer (8 cm solvent migration) to assess free ^177Lu (Rf>0.5) and [^177Lu]-6555 (Rf˜0). The iTLC strips were analyzed using an Eckert & Ziegler AR-2000 Radio-TLC Imaging Scanner. The radiochemical purity was analyzed by high performance chromatography (HPLC) and was typically >90%. Briefly, the product was analyzed using a Phenomenex Luna 3.0 μm C18(2), 100 Å, 150 mm×4.6 mm column. Eluent A: 50 mM ammonium acetate in water, eluent B: acetonitrile. Gradient: 2% B from 0-5 min; 2% to 26% B from 5-20 min; 26% to 98% B from 20-25 min; 98% to 2% B from 25-26 min; 2% B from 26-30 min. Flow rate: 1.0 mL/min, Radio-HPLC detector: NaI (Eckert & Zeigler FC-1000), UV: 215 nm. The radiochemical purity remained >90% for three days at room temperature.
# (§3) The above depicted radiopharmaceutical [^177Lu]-6952 can be prepared as described in Example 20 using the radiochemical precursor 6952 (Example 21 above). The labeling efficiency was analyzed by instant thin layer chromatography (iTLC) and was typically >98%. […] The iTLC strips were analyzed using an Eckert & Ziegler AR-2000 Radio-TLC Imaging Scanner. The radiochemical purity was analyzed by high performance chromatography (HPLC) and was typically >90%. Briefly, the product was analyzed using a Phenomenex Luna 3.0 μm C18(2), 100A, 150 mm×4.6 mm column. […]
# as §3, with “The” for “The above depicted radiopharmaceutical [^177Lu]-6952 can be prepared as described in Example 20 using the radiochemical precursor 6952 (Example 21 above). The”, “>95%.” for “>98%.”, “>95%.” for “>90%.”
# The labeling efficiency was analyzed by instant thin layer chromatography (iTLC) and was typically >95%. […]
# [4] = molecular target: recombinant human prolyl oligopeptidase (PREP) (Homo sapiens (Human), UniProt P48147); assay: In vitro assay prolyl oligopeptidase IC50 (Example 21); format: biochemical
# Method: as §1, §2
# [5] = molecular target: recombinant human dipeptidyl peptidase IV (DPPIV) (Homo sapiens (Human), UniProt P27487); assay: In vitro assay dipeptidyl peptidase IV IC50 (Example 21); format: biochemical
# Method: as §1, §2
# [6] = Degradation in aqueous solution of pH about 3 during HPLC purification and lyophilization; conditions: during HPLC purification and subsequent lyophilization
# Chain of recombinant human fibroblast activation protein (FAP) (Q12884 whole entry): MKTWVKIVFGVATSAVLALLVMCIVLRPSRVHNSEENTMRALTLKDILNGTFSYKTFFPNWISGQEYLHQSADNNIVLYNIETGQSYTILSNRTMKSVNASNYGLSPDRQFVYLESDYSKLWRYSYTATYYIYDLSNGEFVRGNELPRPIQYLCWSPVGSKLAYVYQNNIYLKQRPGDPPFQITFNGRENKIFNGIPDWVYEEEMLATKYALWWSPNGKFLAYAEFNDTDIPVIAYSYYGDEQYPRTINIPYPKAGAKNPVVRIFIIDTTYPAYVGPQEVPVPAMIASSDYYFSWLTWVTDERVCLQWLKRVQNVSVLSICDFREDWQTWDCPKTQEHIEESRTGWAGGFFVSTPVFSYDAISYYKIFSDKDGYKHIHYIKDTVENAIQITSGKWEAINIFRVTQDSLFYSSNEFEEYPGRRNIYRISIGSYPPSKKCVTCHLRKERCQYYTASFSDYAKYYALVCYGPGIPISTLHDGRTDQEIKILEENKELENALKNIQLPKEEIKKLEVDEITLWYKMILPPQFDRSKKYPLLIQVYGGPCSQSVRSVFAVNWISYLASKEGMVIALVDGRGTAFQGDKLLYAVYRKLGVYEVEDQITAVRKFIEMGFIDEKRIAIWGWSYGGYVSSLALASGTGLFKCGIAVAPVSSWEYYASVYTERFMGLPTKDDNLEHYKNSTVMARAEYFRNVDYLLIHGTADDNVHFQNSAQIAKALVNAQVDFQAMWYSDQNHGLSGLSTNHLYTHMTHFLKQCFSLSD
# Chain of recombinant human FAP (Q12884 whole entry): as above
# Chain of recombinant human prolyl oligopeptidase (PREP) (P48147 whole entry): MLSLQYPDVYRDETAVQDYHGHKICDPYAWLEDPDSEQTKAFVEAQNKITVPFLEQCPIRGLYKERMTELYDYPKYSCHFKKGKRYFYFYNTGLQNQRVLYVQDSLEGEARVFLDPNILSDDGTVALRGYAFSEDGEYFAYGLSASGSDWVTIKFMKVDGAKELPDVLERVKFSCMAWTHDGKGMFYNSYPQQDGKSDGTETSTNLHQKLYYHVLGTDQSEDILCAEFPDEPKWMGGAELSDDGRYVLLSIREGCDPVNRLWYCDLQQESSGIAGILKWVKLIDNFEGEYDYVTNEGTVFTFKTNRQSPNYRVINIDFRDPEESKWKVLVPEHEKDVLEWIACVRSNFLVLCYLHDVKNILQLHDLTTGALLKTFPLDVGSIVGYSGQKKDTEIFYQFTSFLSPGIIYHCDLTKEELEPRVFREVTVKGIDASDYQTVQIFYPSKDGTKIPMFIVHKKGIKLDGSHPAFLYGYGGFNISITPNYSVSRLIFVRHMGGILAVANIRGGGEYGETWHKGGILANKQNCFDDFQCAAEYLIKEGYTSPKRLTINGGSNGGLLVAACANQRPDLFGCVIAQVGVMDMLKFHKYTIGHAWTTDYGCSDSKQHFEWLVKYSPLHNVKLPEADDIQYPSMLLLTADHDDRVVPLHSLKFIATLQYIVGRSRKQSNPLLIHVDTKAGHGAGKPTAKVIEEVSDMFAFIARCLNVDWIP
# Chain of recombinant human dipeptidyl peptidase IV (DPPIV) (P27487 whole entry): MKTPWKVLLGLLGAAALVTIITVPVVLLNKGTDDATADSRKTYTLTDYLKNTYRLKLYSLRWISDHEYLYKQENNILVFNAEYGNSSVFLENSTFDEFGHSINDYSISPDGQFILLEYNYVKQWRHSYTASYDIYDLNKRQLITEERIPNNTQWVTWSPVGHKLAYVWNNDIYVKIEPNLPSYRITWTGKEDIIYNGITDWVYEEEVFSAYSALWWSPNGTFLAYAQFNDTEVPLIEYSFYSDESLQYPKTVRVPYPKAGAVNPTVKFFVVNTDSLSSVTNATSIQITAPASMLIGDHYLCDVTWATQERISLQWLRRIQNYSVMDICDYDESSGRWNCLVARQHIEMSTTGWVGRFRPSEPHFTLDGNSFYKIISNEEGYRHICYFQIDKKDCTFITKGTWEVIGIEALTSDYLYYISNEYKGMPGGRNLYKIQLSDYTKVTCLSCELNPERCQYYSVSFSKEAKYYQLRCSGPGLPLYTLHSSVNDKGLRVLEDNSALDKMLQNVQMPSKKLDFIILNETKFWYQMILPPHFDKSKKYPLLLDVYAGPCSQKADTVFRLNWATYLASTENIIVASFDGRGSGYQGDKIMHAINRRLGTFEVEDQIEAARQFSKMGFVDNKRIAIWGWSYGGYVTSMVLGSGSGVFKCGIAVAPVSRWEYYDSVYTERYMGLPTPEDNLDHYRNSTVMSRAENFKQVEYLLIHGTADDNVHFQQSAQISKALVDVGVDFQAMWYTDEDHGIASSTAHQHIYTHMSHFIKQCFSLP
Compound,IC50 [1] [nM],IC50 [2] [nM],also measured
"C[C@@H](NC(=O)c1ccc(NC(=O)CN2CCN(CC(=O)O)CCN(CC(=O)O)CCN(CC(=O)O)CC2)cc1)C(=O)N1CCC[C@H]1B(O)O [compound 6572, DOTA-PABA-D-Ala-boroPro]",1.6,1.6,–
"CC(C)[C@H](NC(=O)CNC(=O)CN1CCN(CC(=O)O)CCN(CC(=O)O)CCN(CC(=O)O)CC1)C(=O)N[C@H](C)C(=O)N1CCC[C@H]1B(O)O [compound 6521, DOTA-Gly-Val-D-Ala-boroPro]",6.9,–,"IC50 ([2]; Z-Gly-Pro-AMC, 1.2 nM enzyme): 6.9 nM"
C[C@@H](NC(=O)c1ccc(CNC(=O)CN2CCN3CCN4CCN(CC2)CC(=O)O[CH2][Ga]([CH2]COC(=O)C3)[CH2]COC(=O)C4)cc1)C(=O)N1CCC[C@H]1B(O)O [[^68Ga]-6555],–,–,radiochemical purity remained [3]: > 95%
C[C@@H](NC(=O)c1ccc(CNC(=O)CN2CCN3CCN4CCN(CC2)CC(=O)[O][Ga]([O]C(=O)C3)[O]C(=O)C4)cc1)C(=O)N1CCC[C@H]1B(O)O [6555GA],–,55,IC50 [4]: 3600 nM; IC50 [5]: > 100000 nM; degradation in aqueous solution [6]: did not observe any sign of degradation
"C[C@@H](NC(=O)c1ccc(NC(=O)CN2CCN3CCN(CC(=O)O)CCN(CC2)CC(=O)[O][Cu][O]C(=O)C3)cc1)C(=O)N1CCC[C@H]1B(O)O [6572CU, DOTA[Cu(II)]-PABA-D-Ala-boroPro]",12.6,–,–
"C[C@@H](NC(=O)c1ccc(NNC(=O)CCNC(=O)CN2CCN(CC(=O)O)CCN(CC(=O)O)CCN(CC(=O)O)CC2)cc1)C(=O)N1CCC[C@H]1B(O)O [6488S, DOTA-betaAla-HyBz-D-Ala-boroPro]",8.8,8.8,–
"C[C@@H](NC(=O)c1ccc(NNC(=O)CN2CCN3CCN(CC(=O)O)CCN(CC2)CC(=O)[O][Cu][O]C(=O)C3)cc1)C(=O)N1CCC[C@H]1B(O)O [compound 6481, DOTA[Cu(II)]-HyBz-D-Ala-boroPro]",10.3,–,–
"C[C@@H](NC(=O)c1ccc(NNC(=O)CCCCCNC(=O)CN2CCN(CC(=O)O)CCN(CC(=O)O)CCN(CC(=O)O)CC2)cc1)C(=O)N1CCC[C@H]1B(O)O [6486S, DOTA-EACA-HyBz-D-Ala-boroPro]",1.7,–,–
"N[C@@H](CCCCNC(=O)CN1CCN(CC(=O)O)CCN(CC(=O)O)CCN(CC(=O)O)CC1)C(=O)N1CCC[C@H]1B(O)O [compound 6549, Lys(DOTA)-boroPro]",3.2,2.9,–
DOTA[(Cu(II)]-Ser-D-Ala-boroPro [6509CU],128,–,"IC50 ([2]; Z-Gly-Pro-AMC, 1.2 nM enzyme): 128 nM"
"C[C@@H](NC(=O)c1ccc(NNC(=O)CNC(=O)CN2CCN(CC(=O)O)CCN(CC(=O)O)CCN(CC(=O)O)CC2)cc1)C(=O)N1CCC[C@H]1B(O)O [6487S, DOTA-Gly-HyBz-D-Ala-boroPro]",2.1,–,–
"C[C@@H](NC(=O)c1ccc(NNC(=O)CN2CCN(CC(=O)O)CCN(CC(=O)O)CCN(CC(=O)O)CC2)cc1)C(=O)N1CCC[C@H]1B(O)O [4536B, DOTA-HyBz-D-Ala-boroPro]",2.7,–,–
"C[C@@H](NC(=O)c1ccc(NNC(=O)CCNC(=O)CN2CCN3CCN(CC(=O)O)CCN(CC2)CC(=O)[O][Cu][O]C(=O)C3)cc1)C(=O)N1CCC[C@H]1B(O)O [compound 6488, DOTA[Cu]-betaAla-HyBz-D-Ala-boroPro]",34.3,34.3,–
"C[C@@H](NC(=O)c1ccc(NNC(=O)CCCNC(=O)CN2CCN(CC(=O)O)CCN(CC(=O)O)CCN(CC(=O)O)CC2)cc1)C(=O)N1CCC[C@H]1B(O)O [6489S, DOTA-GABA-HyBz-D-Ala-boroPro]",0.8,–,–
"C[C@@H](NC(=O)c1ccc(CNC(=O)CN2CCN(CC(=O)O)CCN(CC(=O)O)CCN(CC(=O)O)CC2)nc1)C(=O)N1CCC[C@H]1B(O)O [compound 6556, DOTA-aminomethyl-Nic-D-Ala-boroPro]",2.4,2.4,–
